Source: the NIST ThermoML archive (doi:10.1021/acs.jced.5b00724)
Several values for one entry are separate records, joined by “and”; a condition that tells them apart may be missing. Identical values can stand only once.

Columns and labels:
[1] = 350.12 K; Liquid; Closed cell (Static) method
[2] = refractive index (Na D-line) (dimensionless); conditions: 298.15 K; 101.33 kPa; Liquid; Standard Abbe refractometry
[3] = wn = mass fraction of the nth substance listed; conditions: 298.1 K, Liquid, Vibrating tube method
[4] = excess molar enthalpy (molar enthalpy of mixing); xn = mol fraction of the nth substance listed; conditions: 130 kPa, Liquid, Calvet calorimetry

O [water]
Conditions	refractive index	vapor or sublimation pressure [kPa]
[1]	–	41.9
[2]	1.3325	–

CC1CCC(=O)O1 (stereo not drawn) [γ-valerolactone] + O
Conditions	excess molar enthalpy	mass density [kg/m3]
[3], 107 kPa, w2 = 0	–	1048.8
[3], 107 kPa, w2 = 0.1004	–	1047
[3], 107 kPa, w2 = 0.2005	–	1044.9
[3], 107 kPa, w2 = 0.3025	–	1041.7
[3], 107 kPa, w2 = 0.4	–	1037.6
[3], 107 kPa, w2 = 0.5	–	1032.9
[3], 107 kPa, w2 = 0.6	–	1027.1
[3], 108 kPa, w2 = 0.6999	–	1021.1
[3], 109 kPa, w2 = 0.7999	–	1013.8
[3], 109 kPa, w2 = 0.8997	–	1005.5
[4], 303.2 K, x2 = 0.097	0.124 kcal/mol	–
[4], 303.2 K, x2 = 0.203	0.197 kcal/mol	–
[4], 303.2 K, x2 = 0.303	0.222 kcal/mol	–
[4], 303.2 K, x2 = 0.4	0.217 kcal/mol	–
[4], 303.2 K, x2 = 0.514	0.194 kcal/mol	–
[4], 303.2 K, x2 = 0.601	0.15 kcal/mol	–
[4], 303.2 K, x2 = 0.7	0.107 kcal/mol	–
[4], 303.2 K, x2 = 0.801	0.0581 kcal/mol	–
[4], 303.2 K, x2 = 0.841	0.0387 kcal/mol	–
[4], 303.2 K, x2 = 0.894	0.0127 kcal/mol	–
[4], 303.2 K, x2 = 0.9	0.0103 kcal/mol	–
[4], 303.2 K, x2 = 0.914	0.00308 kcal/mol and 0.00239 kcal/mol	–
[4], 303.2 K, x2 = 0.93	-0.00437 kcal/mol	–
[4], 303.2 K, x2 = 0.946	-0.0098 kcal/mol	–
[4], 303.2 K, x2 = 0.9815	-0.0182 kcal/mol	–
[4], 303.2 K, x2 = 0.9906	-0.0103 kcal/mol	–
[4], 303.2 K, x2 = 0.9962	-0.00416 kcal/mol	–
[4], 303.2 K, x2 = 0.9981	-0.0021 kcal/mol	–
[4], 322.6 K, x2 = 0.204	0.207 kcal/mol	–
[4], 322.6 K, x2 = 0.401	0.249 kcal/mol	–
[4], 322.6 K, x2 = 0.503	0.232 kcal/mol	–
[4], 322.6 K, x2 = 0.602	0.197 kcal/mol	–
[4], 322.6 K, x2 = 0.7	0.152 kcal/mol	–
[4], 322.6 K, x2 = 0.801	0.097 kcal/mol	–
[4], 322.6 K, x2 = 0.9	0.0402 kcal/mol	–
[4], 322.6 K, x2 = 0.95	0.0116 kcal/mol	–
